# Test results reported in ChEMBL document CHEMBL4477207, “Discovery of Novel 3-Quinoline Carboxamides as Potent, Selective, and Orally Bioavailable Inhibitors of Ataxia Telangiectasia Mutated (ATM) Kinase” (J Med Chem, 2016).
# How the values were obtained:
# [1] = biological target: Serine/threonine-protein kinase ATR (Homo sapiens, UniProt Q13535); test: Inhibition of ATR in human HT-29 cells assessed as reduction in Chk1 phosphorylation at Ser-345 residue after 60 mins in presence of 4-nitroquinoline-1-oxide by Hoechst 33258 staining based plate reader analysis; format: cell-based
# [2] = biological target: T1, Serine-protein kinase ATM (Homo sapiens, UniProt Q13315); test: Inhibition of ATM phosphorylation at Ser-1981 residue in human HT-29 cells incubated for 1 hr followed by X-ray irradiation by Hoechst staining based fluorescence plate reader analysis; format: cell-based
# T1 sequence (Q13315 whole entry): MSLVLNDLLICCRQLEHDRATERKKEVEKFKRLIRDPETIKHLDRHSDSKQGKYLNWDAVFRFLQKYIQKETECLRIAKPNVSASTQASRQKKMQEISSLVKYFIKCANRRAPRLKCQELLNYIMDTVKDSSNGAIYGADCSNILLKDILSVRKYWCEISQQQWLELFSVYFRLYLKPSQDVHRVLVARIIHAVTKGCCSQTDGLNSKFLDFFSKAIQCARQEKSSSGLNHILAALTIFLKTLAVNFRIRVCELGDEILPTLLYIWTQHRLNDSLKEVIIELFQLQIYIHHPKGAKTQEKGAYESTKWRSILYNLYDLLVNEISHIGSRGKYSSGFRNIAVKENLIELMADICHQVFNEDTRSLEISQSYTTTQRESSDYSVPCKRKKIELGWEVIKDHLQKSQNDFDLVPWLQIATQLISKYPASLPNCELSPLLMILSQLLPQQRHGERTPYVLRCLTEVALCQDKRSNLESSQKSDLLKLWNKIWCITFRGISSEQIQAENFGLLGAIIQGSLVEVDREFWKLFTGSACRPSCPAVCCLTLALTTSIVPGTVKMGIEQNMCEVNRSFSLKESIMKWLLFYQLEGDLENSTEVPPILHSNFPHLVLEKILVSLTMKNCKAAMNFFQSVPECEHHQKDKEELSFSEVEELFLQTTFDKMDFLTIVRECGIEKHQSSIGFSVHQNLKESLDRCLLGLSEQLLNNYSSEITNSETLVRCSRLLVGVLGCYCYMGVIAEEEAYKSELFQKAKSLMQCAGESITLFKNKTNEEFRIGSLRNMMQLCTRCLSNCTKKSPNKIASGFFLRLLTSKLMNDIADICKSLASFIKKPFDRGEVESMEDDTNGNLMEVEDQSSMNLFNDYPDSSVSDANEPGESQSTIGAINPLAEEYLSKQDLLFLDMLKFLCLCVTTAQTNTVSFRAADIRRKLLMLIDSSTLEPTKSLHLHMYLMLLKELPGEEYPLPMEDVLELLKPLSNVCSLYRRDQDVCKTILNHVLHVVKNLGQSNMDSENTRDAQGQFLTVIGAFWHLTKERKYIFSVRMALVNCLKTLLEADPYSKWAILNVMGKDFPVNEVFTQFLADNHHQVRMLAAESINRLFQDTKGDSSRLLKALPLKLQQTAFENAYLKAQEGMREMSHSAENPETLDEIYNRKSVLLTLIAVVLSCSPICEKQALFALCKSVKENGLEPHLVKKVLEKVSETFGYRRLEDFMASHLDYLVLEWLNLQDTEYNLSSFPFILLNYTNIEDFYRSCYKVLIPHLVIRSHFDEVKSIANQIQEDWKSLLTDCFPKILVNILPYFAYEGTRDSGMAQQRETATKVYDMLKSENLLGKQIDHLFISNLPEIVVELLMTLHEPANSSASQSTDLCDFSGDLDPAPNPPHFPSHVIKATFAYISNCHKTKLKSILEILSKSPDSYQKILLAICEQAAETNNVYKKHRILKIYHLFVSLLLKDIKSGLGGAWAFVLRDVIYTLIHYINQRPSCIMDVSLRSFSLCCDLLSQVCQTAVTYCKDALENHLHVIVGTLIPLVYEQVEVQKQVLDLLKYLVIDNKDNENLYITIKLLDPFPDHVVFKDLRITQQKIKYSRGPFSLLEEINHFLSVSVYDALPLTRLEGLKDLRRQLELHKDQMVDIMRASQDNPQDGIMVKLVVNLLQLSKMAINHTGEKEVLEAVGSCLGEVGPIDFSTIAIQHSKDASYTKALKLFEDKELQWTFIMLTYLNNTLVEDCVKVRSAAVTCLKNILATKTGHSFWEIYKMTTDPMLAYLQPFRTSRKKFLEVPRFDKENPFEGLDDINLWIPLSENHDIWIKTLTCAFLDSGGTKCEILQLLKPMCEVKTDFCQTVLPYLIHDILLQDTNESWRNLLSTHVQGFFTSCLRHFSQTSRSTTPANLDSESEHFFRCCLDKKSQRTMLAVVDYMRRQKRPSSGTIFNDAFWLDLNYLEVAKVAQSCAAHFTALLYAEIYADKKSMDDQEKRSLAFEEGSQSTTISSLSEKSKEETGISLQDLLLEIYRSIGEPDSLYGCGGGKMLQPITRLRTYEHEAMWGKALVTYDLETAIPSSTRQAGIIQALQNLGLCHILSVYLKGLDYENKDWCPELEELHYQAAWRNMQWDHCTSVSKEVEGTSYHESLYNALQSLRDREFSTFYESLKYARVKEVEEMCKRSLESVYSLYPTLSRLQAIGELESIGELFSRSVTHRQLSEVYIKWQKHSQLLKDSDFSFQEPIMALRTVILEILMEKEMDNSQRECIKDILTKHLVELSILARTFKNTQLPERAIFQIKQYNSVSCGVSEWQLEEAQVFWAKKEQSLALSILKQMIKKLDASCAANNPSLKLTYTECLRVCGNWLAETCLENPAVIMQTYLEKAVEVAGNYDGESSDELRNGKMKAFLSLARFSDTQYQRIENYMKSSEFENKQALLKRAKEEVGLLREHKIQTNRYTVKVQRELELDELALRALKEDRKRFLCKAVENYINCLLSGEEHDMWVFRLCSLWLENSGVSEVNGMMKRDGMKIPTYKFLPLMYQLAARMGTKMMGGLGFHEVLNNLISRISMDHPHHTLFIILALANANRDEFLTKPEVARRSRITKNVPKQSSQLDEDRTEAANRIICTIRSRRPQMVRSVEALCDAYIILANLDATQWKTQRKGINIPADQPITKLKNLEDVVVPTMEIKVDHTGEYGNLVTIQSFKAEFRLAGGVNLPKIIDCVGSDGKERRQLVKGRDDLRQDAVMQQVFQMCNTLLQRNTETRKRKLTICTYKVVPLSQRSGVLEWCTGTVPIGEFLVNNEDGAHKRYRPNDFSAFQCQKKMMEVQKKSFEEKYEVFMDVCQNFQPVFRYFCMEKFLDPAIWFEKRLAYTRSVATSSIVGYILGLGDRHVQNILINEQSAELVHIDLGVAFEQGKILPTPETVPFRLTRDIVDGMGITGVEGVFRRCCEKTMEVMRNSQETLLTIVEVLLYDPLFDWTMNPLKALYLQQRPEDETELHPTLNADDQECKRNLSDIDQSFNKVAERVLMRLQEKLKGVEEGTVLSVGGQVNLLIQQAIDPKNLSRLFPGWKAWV
# in vitro [3] = details: rat, hepatocytes
# [4] = biological target: Voltage-gated inwardly rectifying potassium channel KCNH2 (Homo sapiens, UniProt Q12809)
# Sequence of Voltage-gated inwardly rectifying potassium channel KCNH2 (Q12809 whole entry): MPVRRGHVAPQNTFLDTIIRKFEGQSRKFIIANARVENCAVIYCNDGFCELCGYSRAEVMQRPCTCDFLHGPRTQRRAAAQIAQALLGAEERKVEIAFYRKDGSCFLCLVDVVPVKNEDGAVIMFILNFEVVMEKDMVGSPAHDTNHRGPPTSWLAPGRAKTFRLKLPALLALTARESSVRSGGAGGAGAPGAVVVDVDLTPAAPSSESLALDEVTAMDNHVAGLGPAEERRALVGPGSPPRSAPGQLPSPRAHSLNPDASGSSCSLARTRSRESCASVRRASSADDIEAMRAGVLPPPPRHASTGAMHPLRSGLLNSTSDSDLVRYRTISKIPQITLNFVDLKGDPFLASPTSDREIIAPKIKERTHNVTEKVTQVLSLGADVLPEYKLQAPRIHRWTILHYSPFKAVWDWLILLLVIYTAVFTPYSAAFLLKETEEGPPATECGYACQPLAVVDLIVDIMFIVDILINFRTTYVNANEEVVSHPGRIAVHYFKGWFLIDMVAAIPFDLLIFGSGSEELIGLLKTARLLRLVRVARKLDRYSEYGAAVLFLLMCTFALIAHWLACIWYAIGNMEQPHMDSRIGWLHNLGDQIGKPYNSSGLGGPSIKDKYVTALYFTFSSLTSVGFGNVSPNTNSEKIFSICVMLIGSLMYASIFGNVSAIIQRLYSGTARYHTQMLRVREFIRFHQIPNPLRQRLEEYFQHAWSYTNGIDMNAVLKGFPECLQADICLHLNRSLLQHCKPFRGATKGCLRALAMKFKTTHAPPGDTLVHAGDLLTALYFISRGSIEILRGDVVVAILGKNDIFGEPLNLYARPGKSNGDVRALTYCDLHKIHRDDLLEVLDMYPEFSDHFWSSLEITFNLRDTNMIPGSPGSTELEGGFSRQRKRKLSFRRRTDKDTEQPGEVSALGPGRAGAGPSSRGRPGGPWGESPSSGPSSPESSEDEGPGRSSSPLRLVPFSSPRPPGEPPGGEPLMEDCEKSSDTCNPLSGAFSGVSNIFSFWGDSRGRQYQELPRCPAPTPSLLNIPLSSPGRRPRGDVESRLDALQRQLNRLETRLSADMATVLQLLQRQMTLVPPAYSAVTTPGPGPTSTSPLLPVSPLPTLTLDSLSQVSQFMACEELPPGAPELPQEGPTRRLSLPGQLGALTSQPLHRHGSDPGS
# physchem = details: octanol/buffer, pH 7.4
# in vitro [5] = details: human, hepatocytes
# [6] = biological target: Phosphatidylinositol 4,5-bisphosphate 3-kinase catalytic subunit alpha isoform (Homo sapiens, UniProt P42336); test: Inhibition of human recombinant PI3Kalpha using PIP2/ATP as substrate incubated for 20 mins followed by substrate addition by Kinase Glo reagent based luminescence assay
# [7] = biological target: Phosphatidylinositol 4,5-bisphosphate 3-kinase catalytic subunit gamma isoform (Homo sapiens, UniProt P48736); test: Inhibition of human recombinant PI3Kgamma using PIP2/ATP as substrate incubated for 20 mins followed by substrate addition by Kinase Glo reagent based luminescence assay
# [8] = biological target: T1, Serine-protein kinase ATM; test: Inhibition of ATM (unknown origin) using p53 as substrate incubated for 30 mins followed by substrate addition measured after 2 hrs in presence of ATP by HTRF method
# [9] = biological target: Serine/threonine-protein kinase mTOR (Homo sapiens, UniProt P42345); test: Inhibition of C-terminal FLAG-tagged recombinant mTOR (1362 to 2549 residues) (unknown origin) using Biotin-Ahx-Lys-Lys-Ala-Asn-Gln-Val-Phe-Leu-Gly-Phe-Thr-Tyr-Val-Ala-Pro-Ser-Val-Leu-Glu-Ser-Val-Lys-Glu-NH2 as substrate after 90 mins by AlphaScreen assay
# [10] = biological target: Phosphatidylinositol 4,5-bisphosphate 3-kinase catalytic subunit beta isoform (Homo sapiens, UniProt P42338); test: Inhibition of human recombinant PI3Kbeta using PIP2/ATP as substrate incubated for 20 mins followed by substrate addition by Kinase Glo reagent based luminescence assay
# [11] = biological target: DNA-dependent protein kinase catalytic subunit (Homo sapiens, UniProt P78527); test: Inhibition of DNAPK (unknown origin) using p53-based peptide substrate preincubated for 5 min prior to ATP addition
# 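Wherever logD is given: determined by the shake flask method.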
Compound,IC50 [1],IC50 [2],hepatocyte CLint at 1.5 h (in vitro [3]),IC50 [4],logD (physchem),hepatocyte CLint at 1.5 h (in vitro [5]),IC50 [6],IC50 [7],IC50 [8],IC50 [9],IC50 [10],IC50 [11]
CCC(CC)CNc1c(C(N)=O)cnc2ccc(-c3cnn(C)c3)cc12,7.1 µM,0.525 µM,–,–,–,–,–,–,–,–,–,–
C[C@@H](Nc1c(C(N)=O)cnc2ccc(-c3cccnc3)cc12)C1CCOCC1,3.5 µM,0.73 µM,46 µL/min/1e6 cells,4.3 µM,2.3,14 µL/min/1e6 cells,–,–,–,–,–,–
NC(=O)c1cnc2ccc(-c3cccnc3)cc2c1SC1CCCC1,> 23 µM,9.7 µM,120 µL/min/1e6 cells,5.1 µM,3.2,18 µL/min/1e6 cells,–,–,–,–,–,–
CCC(CC)CNc1c(C(N)=O)cnc2ccc(-c3ccnnc3)cc12,2.6 µM,0.908 µM,95 µL/min/1e6 cells,–,3.1,18 µL/min/1e6 cells,–,–,–,–,–,–
NC(=O)c1cnc2ccc(-c3cccnc3)cc2c1NC1CCCC1,1.2 µM,0.137 µM,65 µL/min/1e6 cells,0.57 µM,3.6,23 µL/min/1e6 cells,–,–,–,–,–,–
CCC(CC)CNc1c(C(N)=O)cnc2ccc(-c3ccncc3)cc12,0.73 µM,0.418 µM,76 µL/min/1e6 cells,–,3.3,37 µL/min/1e6 cells,–,–,–,–,–,–
CCC(CC)CNc1c(C(N)=O)cnc2ccc(-c3cccnc3)cc12,> 11 µM,0.073 µM,140 µL/min/1e6 cells,–,4,43 µL/min/1e6 cells,–,–,–,–,–,–
C[C@@H](Nc1c(C(N)=O)cnc2ccc(C#N)cc12)c1ccc(Cl)cc1,4.7 µM,14.4 µM,41 µL/min/1e6 cells,–,3.5,10 µL/min/1e6 cells,0.036 µM,0.204 µM,0.049 µM,0.846 µM,0.139 µM,0.109 µM
NC(=O)c1cnc2ccc(-c3cccnc3)cc2c1NCC1CCCCC1,3 µM,0.456 µM,130 µL/min/1e6 cells,0.83 µM,> 4.3,40 µL/min/1e6 cells,–,–,–,–,–,–
NC(=O)c1cnc2c(Cl)cc(-c3cccnc3)cc2c1NC1CCOCC1,> 30 µM,> 30 µM,7.3 µL/min/1e6 cells,–,2.1,< 1 µL/min/1e6 cells,–,–,–,–,–,–
CNC(=O)c1cnc2ccc(-c3cccnc3)cc2c1N[C@H](C)c1ccc(Cl)cc1,> 30 µM,> 30 µM,–,–,–,–,–,–,–,–,–,–
NC(=O)c1cnc2ccc(-c3cccnc3)c(F)c2c1NC1CCOCC1,> 30 µM,> 30 µM,11 µL/min/1e6 cells,13 µM,1.5,< 3 µL/min/1e6 cells,–,–,–,–,–,–
COCc1ccc(-c2cc3c(N[C@@H](C)c4ccn(C)n4)c(C(N)=O)cnc3cc2F)c(F)n1,> 30 µM,–,–,–,–,–,–,–,–,–,–,–
CCC(CC)CNc1c(C(N)=O)cnc2c(C)cc(-c3cccnc3)cc12,> 30 µM,6 µM,–,–,–,–,–,–,–,–,–,–
COc1cc2ncnc(-n3nc(-c4ccccn4)nc3N)c2cc1OC,> 30 µM,–,89 µL/min/1e6 cells,–,2.6,4.5 µL/min/1e6 cells,1.49 µM,> 1 µM,–,4.59 µM,5.44 µM,0.879 µM
COCc1ccc(-c2cc3c(N[C@@H](C)C4CCOCC4)c(C(N)=O)cnc3cc2F)cn1,> 30 µM,0.052 µM,–,–,–,–,–,–,–,–,–,–
CCC(CC)CNc1c(C(N)=O)cnc2ccc(-c3ccc(CS(C)(=O)=O)nc3)cc12,> 30 µM,0.039 µM,200 µL/min/1e6 cells,1.9 µM,3.1,15 µL/min/1e6 cells,–,–,–,–,–,–
COCc1ccc(-c2ccc3ncc(C(N)=O)c(N[C@@H](C)c4ccn(C)n4)c3c2)c(F)n1,> 25 µM,0.063 µM,6.4 µL/min/1e6 cells,–,2.6,5.7 µL/min/1e6 cells,–,–,–,–,–,–
C[C@@H]1CN(CC(=O)Nc2ccc3c(c2)Cc2cccc(-c4cc(=O)cc(N5CCOCC5)o4)c2S3)C[C@H](C)O1,–,–,22 µL/min/1e6 cells,–,3.6,13 µL/min/1e6 cells,0.452 µM,> 1 µM,–,6.55 µM,2.14 µM,–
NC(=O)c1cnc2ccc(-c3cccnc3)cc2c1NCC1CCOCC1,11 µM,3.23 µM,19 µL/min/1e6 cells,–,2.1,12 µL/min/1e6 cells,–,–,–,–,–,–
